According to PMC9317316, “Synthesis and Evaluation of Some New 4H-Pyran Derivatives as Antioxidant, Antibacterial and Anti-HCT-116 Cells of CRC, with Molecular Docking, Antiproliferative, Apoptotic and ADME Investigations” (Pharmaceuticals, 2022):
Values joined by “and” are separate entries in the source; they are usually repeats but may differ in a detail not shown here. Identical values can stand only once.

Assays:
[1] = Reducing power assay (FRAC, Fe3+ to Fe2+); settings: 0-1 mg/mL, absorbance 700 nm
Experimental: Secondly, FRAC was determined over the concentration range of 0.0−1 mg/mL via monitoring Fe^3+−Fe^2+ transformation in the presence of the studied compounds and the reference antioxidant BHT to estimate the values of efficient concentration (EC50), expressed in mM.
The reducing power of the studied compounds was assessed according to Oyaizu’s method. Briefly, different concentrations (ranging from 0 to 1 mg/mL) of each tested compound were first mixed with 1 mL of 0.2 M sodium phosphate buffer (pH 6.6) and 1 mL of 1% potassium ferricyanide (K3Fe(CN)6) and incubated at 50 °C for 20 min. After the addition of 1.25 mL of 20% trichloroacetic acid (TCA), the mixture was centrifuged for 10 min at 3000 rpm and the upper layer solution was then mixed with 0.5 mL of 0.1% fresh ferric chloride and an equal volume of deionized water. Finally, the absorption of the resulting mixture was measured at 700 nm using a UV spectrophotometer against distilled water as the blank, while butylated hydroxytoluene (BHT) was used as a positive control. The sample ferric reducing power capability was indicated by increased absorbance.

[2] = DPPH radical scavenging assay
Experimental: The IC50 values for DPPH were calculated from the plot of the scavenging effect against the compound concentration.
The compounds’ capacities to scavenge the stable radical 1,1 diphenyl-2-picrylhydrazyl (DPPH) formed in solution by donation of a hydrogen atom or an electron was investigated according to the method described by Bersuder and coworkers. Due to the fact that the initial blue/purple solution of diphenyl picrylhydrazine changes to yellow in the presence of compounds with a capacity to scavenge DPPH free radicals, this reaction is used as a measure of a compound’s ability to scavenge any free radical. Briefly, a 0.5 mL volume of DPPH ethanolic solution was mixed with an equal volume of each sample concentration (0.03 to 1 mg/mL), shaken strongly and incubated at room temperature for 1 h in darkness. The absorbance of the residual DPPH radicals was measured at 519 nm and compared to that of the control (without the tested compound). DPPH radical scavenging was calculated using the following formula: Scavenging effect (%) = (1 − Acompound/AControl) × 100, where Acompound and Acontrol are the absorbances of the tested compound and of the control, respectively. A plot of the scavenging effect (%) versus the sample concentration was also performed to determine the compound concentration providing 50% inhibition (IC50).

Cc1cc(C(C)(C)C)c(O)c(C(C)(C)C)c1 [BHT, butylated hydroxytoluene, reference compound]
EC50 [1]: 89 ± 3 µM
IC50 ([2]; 0.03 to 1 mg/mL, 1 h, mean ± SD, triplicate, read-out: IC50 (mM) for DPPH Scavenging Potency): 0.245 ± 0.027 mM
DPPH Radical Scavenging Effenciency (%) at 1 mg/mL ([2]; at 1 mg/mL): 95.30% and 95.30 ± 0.42%
